Source: PubChem BioAssay (NCI)
“And” between values parts separate entries of the source, which are not always exact repeats. Equal values may be shown once.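 Dose response: 5 concentrations. Exposure: 48 h. Format: 96-well plates. Endpoint: linear interpolation; highest concentration if not reached. Abbreviation: GI50, concentration required for 50% inhibition of growth. TGI: concentration producing complete growth inhibition.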

Columns and labels:
Experiment in all cases: NCI tumour cell line growth inhibition, 48 h
A549 NSCLC = system: A549 NSCLC
SNB-19 CNS = system: SNB-19 CNS
BT-549 breast = system: BT-549 breast
M14 melanoma = system: M14 melanoma
DU-145 prostate = system: DU-145 prostate
MDA-N = system: MDA-N
SNB-78 CNS = system: SNB-78 CNS
P388/ADR leukemia = system: P388/ADR leukemia
SN12K1 renal = system: SN12K1 renal
P388 leukemia = system: P388 leukemia
XF 498 CNS = system: XF 498 CNS
HOP-18 NSCLC = system: HOP-18 NSCLC
T-47D breast = system: T-47D breast
KM20L2 colon = system: KM20L2 colon

| SMILES | TGI (A549 NSCLC) [µM] | TGI (SNB-19 CNS) | TGI (BT-549 breast) [µM] | TGI (M14 melanoma) [µM] | TGI (DU-145 prostate) [µM] | TGI (MDA-N) [µM] | TGI (SNB-78 CNS) [µM] | TGI (P388/ADR leukemia) [µM] | TGI (SN12K1 renal) [µM] | TGI (P388 leukemia) [µM] | TGI (XF 498 CNS) [µM] | TGI (HOP-18 NSCLC) [µM] | TGI (T-47D breast) | TGI (KM20L2 colon) [µM] | other results |
| --- | --- | --- | --- | --- | --- | --- | --- | --- | --- | --- | --- | --- | --- | --- | --- |
| O=C(Nc1cccc(-n2ccc3c(NC(=O)c4ccccc4)nccc32)c1)c1ccc(N2CCOCC2)c(C(F)(F)F)c1 | > 100 | > 100 µM | > 67.7 | > 100 |  |  |  |  |  |  |  |  |  |  | GI50 (A549 NSCLC): 0.0513 µM; GI50 (SNB-19 CNS): 0.058 µM; GI50 (BT-549 breast): 0.183 µM; GI50 (M14 melanoma): 0.0386 µM |
| CCOc1ccc2nc(-c3ccc(O)cc3)sc2c1 | > 100 | > 100 µM | > 100 | > 100 | > 100 | > 100 |  |  |  |  |  |  |  |  |  |
| CC[C@]1(O)C[C@H]2CN(CCc3c([nH]c4ccccc34)[C@@](C(=O)OC)(c3cc4c(cc3OC)N(C=O)[C@H]3[C@@](O)(C(=O)OC)[C@H](OC(C)=O)[C@]5(CC)C=CCN6CC[C@]43[C@@H]65)C2)C1 |  | 43.1 µM and 17.7 µM |  |  |  |  | 109 | 35.5 | 0.134 | 7.83 | 2.5 | 87.3 | 399 µM and 171 µM | 0.206 | GI50 (MDA-N): < 0.001 µM; GI50 (T-47D breast): 112 µM |
| O=C1OC(c2ccccc2)=N/C1=C\c1cccnc1 | > 100 | > 100 µM | > 100 | > 100 |  |  |  |  |  |  |  |  |  |  |  |
| COC1=C2CC(C)CC(OC)C(O)C(C)/C=C(\C)C(OC(N)=O)C(OC)/C=C\C=C(/C)C(=O)NC(=C(C=NC(C)(C)C)C1=O)C2=O (stereo not drawn) | 37.5 | 26.9 µM |  |  |  |  | 46.2 | 62.5 | 31.2 | 8.79 | 3.09 | 33.7 |  | 14.6 |  |
| CC(=O)OC1C(C)OC(Oc2c(C)c3c4c(c2O)[C@@H](C)CC[C@@H]4[C@@H](C)C[C@H]3C=C(C)C)C(O)C1O (stereo partly drawn) | > 100 | > 100 µM |  |  |  |  |  |  |  |  |  |  |  |  | GI50 (A549 NSCLC): 10 µM; GI50 (SNB-19 CNS): 3.41 µM |
| CS(=O)(=O)c1ccc(/C=N/NC(N)=S)cc1 | > 100 | > 100 µM | > 100 | > 100 | > 100 | > 100 |  |  |  |  |  |  | > 100 µM |  |  |
| Nc1ncnc2c1ncn2C1OC(COP(=O)(O)O)C(O)C1O (stereo not drawn) | > 50 | > 50 µM |  |  |  |  | > 50 | > 50 | > 50 | > 37.3 | > 44.7 | > 50 |  | > 50 |  |
| Fc1ccc2[nH]cc(-c3nc(-c4c[nH]c5ncccc45)cs3)c2c1 | > 100 |  |  |  |  |  |  |  |  |  |  |  |  |  | GI50 (A549 NSCLC): 2.65 µM |
| C/C(CC/C(C)=N/O)=N\O | > 100 | > 100 µM | > 100 | > 100 | > 100 | > 100 |  |  |  |  |  |  | > 100 µM |  |  |
| N/C(=N\N=C/c1ccccc1O)NO | > 100 | > 91.3 µM |  |  |  |  | > 96.6 | 10.8 | > 100 | 18.7 | 37.4 | > 100 |  | > 100 |  |
| O=C(O)c1cc2ccccc2c(N=Nc2ccccc2)c1O | 40.1 | 79.6 µM | 45.1 | 37.9 | 29.7 | 58.4 |  |  |  |  |  |  | > 100 µM |  |  |
